# From PubChem BioAssay (NCI)
#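 Each compound was tested at five concentrations against cells in 96-well plates for 48 hours. TGI is the concentration that stops growth completely.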
# How the values were obtained:
# Experiment in all cases: NCI-60 cell line screen, 48 h
# [1] = system: EKVX NSCLC
# [2] = system: SR leukemia
# [3] = system: OVCAR-3 ovarian
# [4] = system: DU-145 prostate
# [5] = system: RXF 393 renal
# [6] = system: HCT-15 colon
# [7] = system: SF-539 CNS
# [8] = system: KM12 colon
# [9] = system: OVCAR-8 ovarian
# [10] = system: PC-3 prostate
# [11] = system: MCF7 breast
# [12] = system: 786-0 renal
# [13] = system: COLO 205 colon
# [14] = system: CAKI-1 renal
# [15] = system: SN12C renal
# [16] = system: UO-31 renal
# [17] = system: MALME-3M melanoma
# [18] = system: SNB-19 CNS
# [19] = system: HT29 colon
# [20] = system: HOP-92 NSCLC
# [21] = system: NCI-H460 lung
# [22] = system: SK-MEL-2 melanoma
# [23] = system: HS 578T breast
# [24] = system: MDA-N
# [25] = system: M14 melanoma
# [26] = system: K-562 leukemia
# [27] = system: T-47D breast
# [28] = system: HCT-116 colon
# [29] = system: SF-295 CNS
# [30] = system: BT-549 breast
# [31] = system: SF-268 CNS
# [32] = system: A549 NSCLC
# [33] = system: MDA-MB-231 breast
# [34] = system: SK-MEL-5 melanoma
# [35] = system: NCI-H226 lung
# [36] = system: NCI/ADR-RES ovarian
# [37] = system: SK-OV-3 ovarian
# [38] = system: UACC-62 melanoma
# [39] = system: OVCAR-5 ovarian
# [40] = system: TK-10 renal
# [41] = system: RPMI-8226 leukemia
# [42] = system: IGROV1 ovarian
# [43] = system: HCC-2998 colon
# [44] = system: NCI-H522 lung
# [45] = system: OVCAR-4 ovarian
# [46] = system: SW-620 colon
# [47] = system: ACHN renal
# [48] = system: HOP-62 NSCLC
# [49] = system: SNB-75 CNS
# [50] = system: MDA-MB-435
# [51] = system: CCRF-CEM leukemia
# [52] = system: LOX IMVI melanoma
# [53] = system: SK-MEL-28 melanoma
# [54] = system: A498 renal
# [55] = system: HL-60(TB) leukemia
# [56] = system: NCI-H23 lung
# [57] = system: U251 CNS
# [58] = system: UACC-257 melanoma
# [59] = system: MOLT-4 leukemia
structure (smiles),measurement,setting,value
CCOC(=O)c1ccc(N=C2C(=S)N(c3ccc(C(=O)OCC)cc3)C(=N)N2/N=C/c2ccccc2)cc1,TGI,[1],> 100 µM
same,TGI,[2],> 100 µM
same,TGI,[3],28.8 µM
same,TGI,[4],> 100 µM
same,TGI,[5],19.3 µM
same,TGI,[6],> 100 µM
same,TGI,[7],51.2 µM
same,TGI,[8],31.2 µM
same,TGI,[9],> 100 µM
same,TGI,[10],18.4 µM
same,TGI,[11],28.5 µM
same,TGI,[12],30 µM
same,TGI,[13],25 µM
same,TGI,[14],42.2 µM
same,TGI,[15],41.3 µM
same,TGI,[16],28.9 µM
same,TGI,[17],49.1 µM
same,TGI,[18],44.5 µM
same,TGI,[19],> 100 µM
same,TGI,[20],36.2 µM
same,TGI,[21],> 100 µM
same,TGI,[22],> 100 µM
same,TGI,[23],> 100 µM
same,TGI,[24],33 µM
same,TGI,[25],24.9 µM
same,TGI,[26],> 100 µM
same,TGI,[27],63.1 µM
same,TGI,[28],30.5 µM
same,TGI,[29],70.4 µM
same,TGI,[30],80.2 µM
same,TGI,[31],52 µM
same,TGI,[32],> 100 µM
same,TGI,[33],32.6 µM
same,TGI,[34],35.6 µM
same,TGI,[35],31.4 µM
same,TGI,[36],> 100 µM
same,TGI,[37],59 µM
same,TGI,[38],38.3 µM
same,TGI,[39],40.5 µM
same,TGI,[40],62.2 µM
same,TGI,[41],> 100 µM
same,TGI,[42],> 100 µM
same,TGI,[43],58 µM
same,TGI,[44],6.1 µM
COc1cccc(-c2c(C#N)c(N)nc3c2CCS(=O)(=O)c2ccc(C)cc2-3)c1,TGI,[45],> 100 µM
same,TGI,[46],> 100 µM
same,TGI,[47],> 100 µM
same,TGI,[2],> 100 µM
same,TGI,[48],> 100 µM
same,TGI,[3],> 100 µM
same,TGI,[4],> 100 µM
same,TGI,[49],> 100 µM
same,TGI,[50],> 100 µM
same,TGI,[6],> 100 µM
same,TGI,[8],> 100 µM
same,TGI,[9],> 100 µM
same,TGI,[10],> 100 µM
same,TGI,[12],> 100 µM
same,TGI,[51],> 100 µM
same,TGI,[52],> 100 µM
same,TGI,[13],> 100 µM
same,TGI,[14],> 100 µM
same,TGI,[15],> 100 µM
same,TGI,[16],> 100 µM
same,TGI,[17],> 100 µM
same,TGI,[18],> 100 µM
same,TGI,[19],> 100 µM
same,TGI,[20],> 100 µM
same,TGI,[21],> 100 µM
same,TGI,[22],> 100 µM
same,TGI,[23],> 100 µM
same,TGI,[24],> 100 µM
same,TGI,[25],> 100 µM
same,TGI,[26],> 100 µM
same,TGI,[53],> 100 µM
same,TGI,[27],> 100 µM
same,TGI,[28],> 100 µM
same,TGI,[30],> 100 µM
same,TGI,[31],> 100 µM
same,TGI,[54],> 100 µM
same,TGI,[32],> 100 µM
same,TGI,[55],> 100 µM
same,TGI,[33],> 100 µM
same,TGI,[56],> 100 µM
same,TGI,[34],> 100 µM
same,TGI,[35],> 100 µM
same,TGI,[36],> 100 µM
same,TGI,[38],> 100 µM
same,TGI,[39],> 100 µM
same,TGI,[40],> 100 µM
same,TGI,[41],> 100 µM
same,TGI,[42],> 100 µM
same,TGI,[57],> 100 µM
same,TGI,[43],> 100 µM
same,TGI,[44],> 100 µM
same,TGI,[58],> 100 µM
NC(=O)N/N=C1\CCCCc2ccccc21,TGI,[45],> 10 µM
same,TGI,[46],> 10 µM
same,TGI,[1],> 10 µM
same,TGI,[47],> 10 µM
same,TGI,[2],> 10 µM
same,TGI,[48],> 10 µM
same,TGI,[3],> 10 µM
same,TGI,[4],> 10 µM
same,TGI,[5],> 10 µM
same,TGI,[50],> 10 µM
same,TGI,[6],> 10 µM
same,TGI,[8],> 10 µM
same,TGI,[9],> 10 µM
same,TGI,[10],> 10 µM
same,TGI,[11],> 10 µM
same,TGI,[12],> 10 µM
same,TGI,[51],> 10 µM
same,TGI,[13],> 10 µM
same,TGI,[14],> 10 µM
same,TGI,[15],> 10 µM
same,TGI,[16],> 10 µM
same,TGI,[17],> 10 µM
same,TGI,[18],> 10 µM
same,TGI,[19],> 10 µM
same,TGI,[20],> 10 µM
same,TGI,[21],> 10 µM
same,TGI,[22],> 10 µM
same,TGI,[24],> 10 µM
same,TGI,[25],> 10 µM
same,TGI,[26],> 10 µM
same,TGI,[27],> 10 µM
same,TGI,[28],> 10 µM
same,TGI,[30],> 10 µM
same,TGI,[31],> 10 µM
same,TGI,[32],> 10 µM
same,TGI,[33],> 10 µM
same,TGI,[59],> 10 µM
same,TGI,[56],> 10 µM
same,TGI,[35],> 10 µM
same,TGI,[36],> 10 µM
same,TGI,[39],> 10 µM
same,TGI,[40],> 10 µM
same,TGI,[41],> 10 µM
same,TGI,[57],> 10 µM
same,TGI,[43],> 10 µM
same,TGI,[44],> 10 µM
same,TGI,[58],> 10 µM
O=C(CCCN1CCC2(CC1)OC(=O)N(c1ccccc1)C2=O)c1ccccc1,TGI,[45],> 100 µM
same,TGI,[46],> 100 µM
same,TGI,[1],> 100 µM
same,TGI,[47],> 100 µM
same,TGI,[2],> 100 µM
same,TGI,[48],> 100 µM
same,TGI,[3],> 100 µM
same,TGI,[4],> 100 µM
same,TGI,[49],> 100 µM
same,TGI,[5],> 100 µM
same,TGI,[50],> 100 µM
same,TGI,[6],> 100 µM
same,TGI,[7],> 100 µM
same,TGI,[8],> 100 µM
same,TGI,[9],> 100 µM
same,TGI,[10],> 100 µM
same,TGI,[11],> 100 µM
same,TGI,[12],> 100 µM
same,TGI,[51],> 100 µM
same,TGI,[52],> 100 µM
same,TGI,[13],> 100 µM
same,TGI,[14],> 100 µM
same,TGI,[15],> 100 µM
same,TGI,[16],46.3 µM
same,TGI,[17],> 100 µM
same,TGI,[18],> 100 µM
same,TGI,[19],> 100 µM
same,TGI,[20],> 100 µM
same,TGI,[21],> 100 µM
same,TGI,[22],> 100 µM
same,TGI,[23],> 100 µM
same,TGI,[24],> 100 µM
same,TGI,[25],> 100 µM
same,TGI,[26],> 100 µM
same,TGI,[53],> 100 µM
same,TGI,[27],> 100 µM
same,TGI,[28],> 100 µM
same,TGI,[29],> 100 µM
same,TGI,[31],> 100 µM
same,TGI,[54],> 100 µM
same,TGI,[32],> 100 µM
same,TGI,[55],> 100 µM
same,TGI,[33],93.4 µM
same,TGI,[59],> 100 µM
same,TGI,[56],> 100 µM
same,TGI,[34],> 100 µM
same,TGI,[35],> 100 µM
same,TGI,[36],> 100 µM
same,TGI,[37],> 100 µM
same,TGI,[38],> 100 µM
same,TGI,[39],> 100 µM
same,TGI,[40],> 100 µM
same,TGI,[41],> 100 µM
same,TGI,[42],> 100 µM
same,TGI,[57],> 100 µM
same,TGI,[43],> 100 µM
same,TGI,[44],> 100 µM
same,TGI,[58],> 100 µM
